Laboratory results published in paper PMC11134387, “Cancer-Stem-Cell Phenotype-Guided Discovery of a Microbiota-Inspired Synthetic Compound Targeting NPM1 for Leukemia” (JACS Au, 2024).

Assays:
Format in all cases: cell-based
[1] = system: OCI-AML3 (NPM1 C+); experiment: Cell viability dose-response in AML cell line (NPM1 C+); settings: Homo sapiens, OCI-AML-3; OCI-AML3, 48 h
From the text: One of the most paradigmatic diseases with critical involvement of CSCs is AML. Among the AML stem cell population, CD34+/CD38- are the only ones capable of inducing leukemia in vivo.[27] […] We focused on proteins that disappeared completely after treatment with the compound and whose concentration could be quantified in untreated samples. According to this profile, 340 proteins, including targets related with stemness and cancer, were identified (see Supplementary Excel file). Among them, nucleophosmin 1 (NPM1) especially attracted our attention, as it is one of the most common mutated proteins in AML.[28] To support that the inhibitory capacity of UCM-13369 observed in CSC cells (see Table S1) is mediated by NPM1, the compound was tested on OCI-AML3 and MOLM13 cell lines, as in vitro AML models bearing mutant (NPM1 C+) and wild-type (WT) protein, respectively.
The test compound was diluted in PBS.

[2] = system: c-Myc; experiment: qPCR and Western blot of c-Myc in OCI-AML3 cells
From the text: We next studied the impact of UCM-13369 in the genes and/or expression levels of NPM1 and NPM1 C+ pathway components (Figure 4A), including the positive regulation of c-Myc[34] and the negative regulation of FBXW7 and the pro-apoptotic CASP8.[35] […] The inhibition of NPM1 was also observed in MOLM13 cells expressing WT NPM1 (Figure S1B). […]
quantitative real-time PCR (qPCR), or were sorted using a FACS BD INFL UX cell sorter (BD Biosciences, Franklin Lakes, NJ, USA). All cells were maintained at 37 °C in a humidified incubator in an atmosphere of 5% CO2, and passaged every 2–3 days. […]
Primary cells. […] After 72 h in maintenance cells were ready to start the assays. […]
Colonospheres, mamospheres and colony formation unit assays. […] After 10 days (mamospheres and colonospheres) and 14 days (CFU-E) we quantified t he number of colonies/spheres and number of cell s (CFU-E) by […]
RNA and DNA extraction and quantitative PCR (qPCR). […] Gene expression was studied from the extracted RNA, processed into cDNA to quantify the expression of NPM1 and c-MYC. […]
The relative amount of targets was determined by the comparative Ct method.
Western blot. […] Lysates wer e cl ear ed by centrifugation (14,000g, 4 °C, 30 min), protein concentration determined by Bradford […]
Proteomic analysis. […] Follows the image of a Venn diagram showing the number of proteins detected in each of the pop ulations and the proteins that converg e […]

[3] = system: FBXW7; experiment: Western blot of FBXW7 in OCI-AML3 cells
Method: We next studied the impact of UCM-13369 in the genes and/or expression levels of NPM1 and NPM1 C+ pathway components (Figure 4A), including the positive regulation of c-Myc[34] and the negative regulation of FBXW7 and the pro-apoptotic CASP8.[35] […] The inhibition of NPM1 was also observed in MOLM13 cells expressing WT NPM1 (Figure S1B).
Assay (Bio-Rad Labo rato ries, Hercules, CA, USA) and 20 µg of total protein s was loaded onto 10% SDS-PAGE gels followed by transfer onto a nitrocellulose membrane. Blots were incubated with primary antibodies α-NPM1 (Abcam ), α-M YC (Cel l Signaling), α-FBXW7 ( Abcam) and an ti-mouse or anti-rabbit secondary antibodies (BD). An antibody to β-actin was used to check for equivalent protei n loading. Membranes were developed by enhanced chemiluminescenc e (Clarity Weste rn ECL substrate; Bio-Rad Laboratories ). […]
Proteomic analysis. A supplementary table (Excel file) includes all the data of the proteomic analysis, showing all the proteins identified, not only those ablated in the treated population, but also those found with different expression levels in both populations under study, and even those that were not detected in the control population but were detected in the treated population. Follows the image of a Venn diagram showing the number of proteins detected in each of the pop ulations and the proteins that converg e […]

## COc1ccc(C2Cc3[nH]c4ccccc4c3C(CCNCC3CC3)C2N)cc1 (stereo not drawn) [4b, 4-{2-[(Cyclopropylmethyl)amino]ethyl}-2-(4-methoxyphenyl)-2,3,4,9-tetrahydro-1H-carbazol-3-amine]
[1]
  IC50: 7.26 µM
[2]
  c-Myc levels (in words): reduced levels
[3]
  FBXW7 levels (in words): upregulated
